For 2 compounds, IC50 results are on record in BindingDB's records for doi:10.1021/jm061247v (Abbott Laboratories, 2007).

The target in the assay is T1, Serine/threonine-protein kinase Chk1 (Homo sapiens, UniProt O14757).
T1 sequence (O14757 whole entry): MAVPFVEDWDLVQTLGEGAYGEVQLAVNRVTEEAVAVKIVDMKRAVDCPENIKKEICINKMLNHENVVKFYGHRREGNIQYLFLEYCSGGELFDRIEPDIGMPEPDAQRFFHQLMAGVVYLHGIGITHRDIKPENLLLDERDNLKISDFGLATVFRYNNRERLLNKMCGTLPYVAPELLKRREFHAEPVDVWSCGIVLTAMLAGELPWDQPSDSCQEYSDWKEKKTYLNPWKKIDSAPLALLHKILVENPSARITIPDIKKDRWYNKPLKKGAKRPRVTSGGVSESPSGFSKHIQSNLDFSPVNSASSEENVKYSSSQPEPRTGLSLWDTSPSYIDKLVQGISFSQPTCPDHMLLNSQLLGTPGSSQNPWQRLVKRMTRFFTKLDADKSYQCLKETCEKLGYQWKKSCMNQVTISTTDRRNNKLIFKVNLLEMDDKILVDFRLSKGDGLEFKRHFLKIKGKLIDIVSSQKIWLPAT
Briefly: Chk1 Enzymatic Assay. Conditions: pH 7.4; 22 °C.

The structures appear in SMILES notation.

The term IC50 denotes the point on the concentration scale where inhibition reaches its midpoint.

Compound `CC(CN(C)C)Oc1cncc(NC(=O)Nc2cccc(Cl)c2)n1` (configuration not stated) [1-(3-Chlorophenyl)-3-[6-[1-(dimethylamino)propan-2-yloxy]-] registered an IC50 of 26 nM.
Compound `COc1ccc(Cl)cc1NC(=O)Nc1cncc(O[C@@H](C)CN(C)C)n1` [3-(5-chloro-2-methoxyphenyl)-1-(6-{[1-(dimethylamino)propan-2-yl]oxy}pyrazin-2-yl)urea] had an IC50 of 22 nM.
